We go through 60 molecules from a melting point compilation (Tetko et al.; mined from patent text by program, amines drawn as free bases though some values may be those of a salt).

Each structure is given as a SMILES string. Non-standard residues stand in square brackets, D forms with d. Residues, ends and D or L forms follow the SMILES beside them. *: point of attachment. 1Nal = N[C@@H](Cc1cccc2ccccc12)C(=O)O; Leu(ol) = CC(C)C[C@H](N)CO; Cbz = O=C(OCc1ccccc1)*

Molecule `CCOC(=O)c1cc2c(nc1C(=O)OCC)CCSC2` gave a melting point of 65 to 66 °C. `CC1(C)COP(N(CCCN(C2CC(C)(C)NC(C)(C)C2)P2OCC(C)(C)CO2)C2CC(C)(C)NC(C)(C)C2)OC1` yielded a melting point of 102 °C.

On to `O=C(O)CCC(CC=Cc1ccccc1Cl)(C(=O)C=Cc1ccc(Cl)cc1)c1ccccc1` (stereo not given), for which the melting point fell in the range of 90 to 125 °C. In turn, `CCCCCCCCCC(=O)NC(=O)OCc1nc(C(C)C)c(Sc2cc(Cl)cc(Cl)c2)n1CC` came in with a melting point of 102 to 103 °C.

`COc1ccc(C(=O)Nc2ccc(Cl)c(Cl)c2)cc1NCc1cccs1` returned a melting point of 178 to 180 °C. On to `CCc1c(C)nc(SCc2cc(C)ccn2)[nH]c1=O`, for which the melting point lay in the range of 130 to 132 °C. For the molecule `Cn1cnc2c1c(=O)n(CCCCCCOc1ccc(Cl)cc1)c(=O)n2C`, the melting point is 97 to 98 °C.

The molecule `CCc1coc(Cc2ccc([N+](=O)[O-])cc2)n1` came in with a melting point of 58 to 59 °C. For `Cn1ccc2c1CCN1C(=O)CCC21` (stereo not given) the value was 122 to 125 °C; for `CCCC(C)(C)NC(=S)Nc1cc(Cl)cc(Cl)c1`, 115 to 117 °C; for `CC(C)c1ccc(-n2nc(C(F)(F)F)cc2-c2ccc(S(C)(=O)=O)cc2)cc1`, 144 to 146 °C. The molecule `Cc1cc(Cl)cc(NC(=O)C=NO)c1` gave a melting point of 206 to 207 °C. For `CC(C)N(CCN1C(=O)/C(=N/NC(=O)Nc2ccccc2)c2ccccc21)C(C)C` the value was 157 to 159 °C. The molecule `O=C(Nc1ccc(-n2nc(C(F)(F)F)cc2C(F)(F)F)cc1)c1cc(Br)c(Br)s1` displayed a melting point of 142 to 144 °C. For the molecule `CN(C(=O)OC(C)(C)C)c1cc(OCc2ccccc2)ccc1[N+](=O)[O-]`, the melting point fell in the range of 108 to 110 °C. For `CC1=C(C#N)S(=O)(=O)c2cc(Cl)ccc2N1`, the melting point was 297 to 299 °C. `CCOC(=O)[C@H](CCc1ccccc1)N(C(=O)OCC(Cl)(Cl)Cl)[C@@H](C)C(=O)O` showed a melting point of 73 to 75 °C. `O=C(O)c1ccc(-n2nnnc2S)cc1` had a melting point of 198 °C. For `CNCCc1ccc(CCC(=O)O)cc1` the value was 211 to 212 °C; for `Cc1cc(-n2cncn2)c2cccc(OCc3c(Cl)ccc(S(=O)(=O)N4CCC[C@H]4C(=O)NCC4CCN(CCCO)CC4)c3Cl)c2n1`, 136 °C.

As for `COc1ccc(Cc2nnc(N[C@H]3CO[C@H](C(C)C)OC3)c3ccccc23)cn1`, the melting point lay within 186 to 187 °C. Turning to `CCNc1cc(OC)c(C(F)(F)F)cc1[N+](=O)[O-]`, the melting point is 140 to 142 °C. As for `CN(C)C1CCN(c2nccc(Oc3ccc(NC(=O)c4cc(F)cc(N5CCCCC5)c4)c4ccccc34)n2)C1` (stereo not given), the melting point is 93 to 94 °C.

The molecule `COc1cc(COC2CCN(C(=O)c3ccc([N+](=O)[O-])cc3)CC2)cc(OC)c1OC` returned a melting point of 124 °C.

Molecule `CS(=O)(=O)Nc1cccc(Nc2nc(N3CCC(O)C3)c3nc[nH]c3n2)c1` (stereo not given) registered a melting point of 243 to 248 °C. `CC(CC1OCCc2ccccc21)NCC(O)c1ccc(O)cc1` (stereo not given) showed a melting point of 83 to 105 °C. For `Cc1cc([C@@H](O)[C@@H]2[C@@H](C)CCCC2(C)C)ccc1C#N` the value was 111 to 113 °C.

Molecule `CCCCCCCCCCCCCCCCCCN(C)[Si](C)(C)C` yielded a melting point of 35 to 40 °C. With `CCOC(=O)C(=NOC)C1=CSc2ccccc2S1` the figure was 78 to 81 °C; with `CCOC(=O)c1c[nH]c2c(OC)ccc(-c3ccccc3)c2c1=O`, 234 to 237 °C. Consider `CCC[C@H]1CC[C@H]([C@H]2CC[C@H](c3cc(F)c(C[C@H](C)c4ccccc4)c(F)c3)CC2)CC1`, for which the melting point amounted to 93.7 °C. `OC(c1ccccc1)(c1ncc[nH]1)c1ccc(Cl)cc1Cl` (stereo not given) yielded a melting point of 176 to 177 °C. With `CCCCCCCCCCCCCCCCCCN(CCCCCCCCCCCCCCCCCC)C(=O)N1CCN(C)CC1` the figure was 46 to 47 °C. With `O=C1C=C(c2c[nH]c3ccc(OCc4ccccc4)cc23)C(=O)N1` the figure was 211 °C; with `CC1(C)CN(C2CC3(C)C(CCC4C3CCC3(C)C(C(=O)CSC#N)CCC43)CC2O)CCO1` (stereo not given), 166 °C. With `COc1ccccc1-n1c(Cn2cnc3c(N)ncnc32)nc2cccc(Cl)c2c1=O`, the melting point turned out to be 257 °C. On to `C[C@@H]1CN(c2ccc(N/C=C3\C(=O)NC(=O)c4ccc(-c5ccoc5)cc43)cc2)C[C@H](C)N1C`, for which the melting point was in the range of 204 to 205 °C. `CCOc1nc(N)nc(C2CC2)n1` yielded a melting point of 103 to 106 °C. With `Cc1ccc(C)n1-c1cc2[nH]c(=O)c(=O)n(CC(=O)NCc3ccccc3)c2cc1Cl`, the melting point amounted to 244 °C. With `COc1cccc(N2CCN(C(=O)Oc3ccc(Oc4ccc(C(F)(F)F)cn4)cc3)CC2)c1` the figure was 109 to 111 °C; with `CC(C)(C)OC(=O)N[C@@H](COS(C)(=O)=O)Cc1ccccc1`, 119 to 120 °C; with `NCCN1CCC(Nc2nc3ccccc3n2Cc2cccs2)CC1`, 137 °C. For `COC(=O)c1ccc(Cl)cc1NC(=O)CSc1ccccc1Cl` the value was 99 to 101 °C; for `CC(C)(C)c1cc(C(c2ccccc2)c2cc(C(C)(C)C)cc(C(C)(C)C)c2O)c(O)c(C(C)(C)C)c1`, 165 to 167 °C; for `CC(C)C[C@@H](CO)NC(=O)[C@H](Cc1c[nH]cn1)NC(=O)[C@H](Cc1cccc2ccccc12)NC(=O)OCc1ccccc1` (Cbz-[1Nal]-His-[Leu(ol)]), 157 to 159 °C. For the molecule `COC(=O)c1ccccc1NC(=O)CN1CCN(C(=O)c2ccc(OC)cc2)CC1`, the melting point fell in the range of 168 to 169 °C.

Turning to `O=CCCOc1ccc(CC2SC(=O)NC2=O)cc1` (stereo not given), the melting point fell in the range of 48 to 51 °C. For `C=C(C)c1cc(-c2ccc(OCCNC(N)=O)cc2)n(-c2ccc(OC)nc2)n1` the value was 94 to 98 °C. `COC(=O)C1(c2cc(C#N)ccc2O)CCCC1` came in with a melting point of 113 to 118 °C. For `N#CCN1C(=O)SC(=Cc2ccc(OCCc3ccccc3)cc2)C1=O`, the melting point lay in the range of 155 to 157 °C. `Cc1cc(C(=O)N2Cc3cccn3Cc3ccccc32)ccc1C1=CCC2CCC1C2` (stereo not given) registered a melting point of 168 to 169 °C. The molecule `O=C(CCl)Nc1ccc2c(c1NC(=O)c1ccccc1C(F)(F)F)C(=O)c1ccccc1C2=O` registered a melting point of 248 to 250 °C.

The molecule `COC(=O)C(C)(C)OCc1oc(-c2ccc(Cl)cc2)nc1C` came in with a melting point of 88 to 90 °C.

Regarding `COC(=O)C1(N(C)C(=O)Cc2c(C)cc(C)cc2C)CCN(OC)CC1`, the melting point lay in the range of 133 to 135 °C. The molecule `Cc1cc2ccccc2n1-c1ccc(OCc2ccccc2)cc1` came in with a melting point of 95 to 96 °C. For the molecule `Cc1c(-c2ccc(OCc3ccccc3)c(F)c2)[nH]c2ccc(OCc3ccccc3)cc12`, the melting point lay within 135 to 137 °C. With `CC[C@H](C)[C@H](NC(=O)OCc1ccccc1)C(=O)N[C@@H](CO)Cc1c[nH]c2ccccc12` the figure was 198 to 199 °C. With `O=C(C=C1CC(C(=O)O)Nc2cc(Cl)ccc21)Nc1ccccc1` (racemic), the melting point was 118 to 120 °C. In turn, `CC(=O)NCCCCNc1ccc(NCCN(C)C)c2c1C(=O)c1ccccc1C2=O` showed a melting point of 160 to 162 °C. Regarding `NC(=O)CCNc1cc(Oc2ccc(C(F)(F)F)cc2Cl)ccc1[N+](=O)[O-]`, the melting point was in the range of 137 to 138 °C.

By melting point is commonly meant the temperature of the solid-liquid transition.
